The source made the active and inactive calls. The rule behind the calls is not given here.
Columns and labels:
[1] = system: Chromobacterium violaceum; experiment: Antimicrobial activity against Chromobacterium violaceum at 100 ug/mL after 24 hrs by serial dilution method; assay type: functional, organism-based
Micrococcus luteus = experiment: Antimicrobial activity against Micrococcus luteus at 100 ug/mL after 24 hrs by serial dilution method; assay type: functional, organism-based
Nocardia = experiment: Antimicrobial activity against Nocardia flava at 100 ug/mL after 24 hrs by serial dilution method; assay type: functional
Pseudococcomyxa simplex [2] = experiment: Antimicrobial activity against Pseudococcomyxa simplex at 0.8 to 100 ug/mL by serial dilution method; assay type: functional
Rhodotorula glutinis = experiment: Antimicrobial activity against Rhodotorula glutinis at 100 ug/mL after 24 hrs by serial dilution method; assay type: functional, organism-based
Botryococcus braunii = experiment: Antimicrobial activity against Botryococcus braunii at 0.8 to 100 ug/mL by serial dilution method; assay type: functional
U-937 = experiment: Cytotoxicity against human U937 cells up to 100 ug/mL by WST-1 assay; assay type: functional, cell-based
[3] = system: Scenedesmus bajacalifornicus; experiment: Antimicrobial activity against Scenedesmus bajacalifornicus at 0.8 to 100 ug/mL by serial dilution method; assay type: functional; details: Tetradesmus bajacalifornicus
Staphylococcus aureus = experiment: Antimicrobial activity against Staphylococcus aureus at 100 ug/mL after 24 hrs by serial dilution method; assay type: functional, organism-based
Mucor hiemalis = experiment: Antimicrobial activity against Mucor hiemalis at 100 ug/mL by serial dilution method; assay type: functional, organism-based
Bracteacoccus = experiment: Antimicrobial activity against Bracteacoccus sp. at 0.8 to 100 ug/mL by serial dilution method; assay type: functional
Wickerhamomyces anomalus = experiment: Antimicrobial activity against Pichia anomala at 100 ug/mL after 24 hrs by serial dilution method; assay type: functional, organism-based
Chlamydomonas = experiment: Antimicrobial activity against Chlamydomonas sp. at 0.8 to 100 ug/mL by serial dilution method; assay type: functional
[4] = system: Schizosaccharomyces pombe; experiment: Antimicrobial activity against Schizosaccharomyces pombe at 100 ug/mL after 24 hrs by serial dilution method; assay type: functional, organism-based
Escherichia coli = experiment: Antimicrobial activity against Escherichia coli at 100 ug/mL after 24 hrs by serial dilution method; assay type: functional, organism-based
Candida albicans = experiment: Antimicrobial activity against Candida albicans at 100 ug/mL after 24 hrs by serial dilution method; assay type: functional, organism-based
Pseudococcomyxa simplex [5] = experiment: Antimicrobial activity against Pseudococcomyxa simplex at 100 ug/mL by serial dilution method; assay type: functional

| SMILES | growth inhibition (GI) [1] | growth inhibition (GI) (Micrococcus luteus) | growth inhibition (GI) (Nocardia) | growth inhibition (GI) (Pseudococcomyxa simplex [2]) | growth inhibition (GI) (Rhodotorula glutinis) | growth inhibition (GI) (Botryococcus braunii) | Activity (U-937) | growth inhibition (GI) [3] | growth inhibition (GI) (Staphylococcus aureus) | growth inhibition (GI) (Mucor hiemalis) | growth inhibition (GI) (Bracteacoccus) | growth inhibition (GI) (Wickerhamomyces anomalus) | growth inhibition (GI) (Chlamydomonas) | growth inhibition (GI) [4] | growth inhibition (GI) (Escherichia coli) | growth inhibition (GI) (Candida albicans) | growth inhibition (GI) (Pseudococcomyxa simplex [5]) |
| --- | --- | --- | --- | --- | --- | --- | --- | --- | --- | --- | --- | --- | --- | --- | --- | --- | --- |
| CCCC(=O)NCC(=O)c1ccc(O)cc1 | inactive | inactive | inactive | inactive | inactive | inactive | inactive | inactive | inactive | inactive | inactive | inactive | inactive | inactive | inactive | inactive | – |
| CC(C)CC(=O)N/C=C/c1ccc(O)cc1 | inactive | inactive | inactive | – | inactive | inactive | inactive | inactive | inactive | inactive | inactive | inactive | inactive | inactive | inactive | inactive | Active |
| CC(C)CCC(=O)NCC(=O)c1ccc(O)cc1 | inactive | inactive | inactive | inactive | inactive | inactive | inactive | inactive | inactive | inactive | inactive | inactive | inactive | inactive | inactive | inactive | – |
| CC(C)CC(=O)NCC(=O)c1ccc(O)cc1 | inactive | inactive | inactive | inactive | inactive | inactive | inactive | inactive | inactive | inactive | inactive | inactive | inactive | inactive | inactive | inactive | – |
| CC(=O)NCC(=O)c1ccc(O)cc1 | inactive | inactive | inactive | inactive | inactive | inactive | inactive | inactive | inactive | inactive | inactive | inactive | inactive | inactive | inactive | inactive | – |
| CCCCCC(=O)NCC(=O)c1ccc(O)cc1 | inactive | inactive | inactive | inactive | inactive | inactive | inactive | inactive | inactive | inactive | inactive | inactive | inactive | inactive | inactive | inactive | – |

From ChEMBL document CHEMBL1811840, “p-hydroxyacetophenone amides from Cystobacter ferrugineus, strain Cb G35” (J Nat Prod, 2011)
